Results from patent US20130023485A1, “PARENTERAL FORMULATIONS OF PEPTIDES FOR THE TREATMENT OF SYSTEMATIC LUPUS ERYTHEMATOSUS” (Teva Pharmaceutical Industries, Ltd., priority 2003, published 2013).

Assays:
[1] = Biological activity of chosen Compound 1 formulations
Text: The pH was adjusted if needed.

LN cells = experiment: IFN-γ secretion by cultured LN cells of immunized and treated mice (ELISA); type: in vivo, BALB/c mice
Description: A group of 20 mice were immunized with 50 μg/mouse of Compound 1 RS. The immunized mice were allocated to five treatment groups as follows: placebo, 25, 50, 100 and 200 μg/mouse of Compound 1 DP (subcutaneous administration). Ten days post immunization and treatment, LN was extracted and single cell suspension was prepared. The in-vitro secretion of IFN-γ and TGF-β by the cultured cells in response to activation with several concentrations of Compound 1 RS was then measured. [table] [table] Mice: 20 female BALB/c mice, supplied by Harlan animals breeding center, Rehovot. Age at immunization (week+days): 10 Average weight of mice included in the experiment: 19.01 gr. The immunization was performed by injecting 100 microliters of the immunization emulsion (50 microliters into each hind footpad). […] Mice were sacrificed by cervical dislocation. LN were extracted from the hind legs and were transferred to a sterile petri dish containing about 5 mL RPMI. The cells were extracted by gentle squeezing of the tissue against a 200 micrometer mesh stainless steel net. The cells were collected and centrifuged at 300 G for 10 minutes at RT. Single cell suspensions were prepared from pooled LN of each experimental group. […] Secretion of IFN-γ and TGF-β, as indication of cellular response, were determined by ELISA of culture media (48 hrs for IFN-γ and 72 hrs for TGF-β).

SLE subjects = experiment: Phase Ia clinical study, single s.c. dose, tolerability and safety; type: in vivo, human
Description: Thirty-six (36) subjects participated in the study. To be eligible for inclusion in the study, SLE patients must have fulfilled at least four criteria used for the diagnosis of lupus by the American College of Rheumatology. Patients must also have had stable, mild/moderate disease and score less than or equal to 10 on the SLE Disease Activity Index, SLEDAI. […] A standard battery of safety tests, including blood and urine collection for laboratory tests, was performed at screening, during the day of dosing, at 24 hours post-dose and at 2, 4 and 8 weeks following dosing. Prior to dosing, and on scheduled follow-up visits, blood samples were withdrawn for SLE-related immunological tests, anti-Compound 1 antibodies and PBL proliferation assay. […] The following safety parameters were assessed at Screening, during the hospitalization and at follow-up visits including Termination visit: vital signs (systolic blood pressure, diastolic blood pressure, pulse, oxygen saturation, temperature and weight), 12-lead ECG, change in physical examination and clinical routine laboratory safety tests. Adverse events were recorded at the Dosing Day and at each visit thereafter. SLE-related immunological tests were performed at Screening, during the hospitalization and at follow-up visits including Termination visit. […] Disease activity assessment using the SLE disease activity index score, year 2000 updated (SLEDAI 2K) was assessed at Screening, during the hospitalization and at follow-up visits including Termination visit.

[2] = system: TGF-β secretion by PBL of SLE patients; experiment: Up-regulation of TGF-β secretion by PBL stimulated with human 16/6Id mAb (ELISA); type: cell-based
Description: For this purpose, supernatants were removed from cultures of PBL of various SLE patients following 48 hours incubation with the human 16/6Id mAb in the absence or presence of the peptides hCDR1 or hCDR3. TGF-β was determined by ELISA according to the manufacturer's instructions. Briefly, Maxisorb plates (Nunc) were coated with recombinant human TGFβsRII/Fc chimera (R & D Systems) diluted in PBS (100 ng/ml). After blocking, cell supernatants were added. After 18 hours incubation the detecting biotinylated anti-human TGF-β antibody (R & D Systems) was added. The substrate solution used was the TMB Colour Reagent (Helix Diagnostics) and enzyme activity was evaluated by the MRX ELISA reader using the 570 nm and 630 nm filters.

[3] = system: Balb/c mice and (NZB×NZW)F1 mice; conditions: cited from earlier work
[4] = Solubility of Compound 1 with solubility enhancers (visual examination and analytical assay)
[5] = single s.c. 0.5, 1 or 2.5 mg in Captisol®

## H-GYYWSWIRQPPGKGEEWIG-OH [Compound 1]
[1]; 30% (w/w) PEG 400 formulation
  biological activity: inactive
[1]; formulations with acetate buffer and citrate buffer (Mannitol as tonicity agent)
  biological activity: active
[1]; the two cyclodextrin formulations (Hydroxypropyl-β-cyclodextrin, Captisol)
  biological activity: equal to the activity of the peptide alone
LN cells; treated 25 μg/M s.c., 5 million cells/well, activation Compound 1 3.125 μg/ml
  Final cytokine (IFN-γ): BQL
LN cells; treated 25 μg/M s.c., 5 million cells/well, activation Compound 1 6.25 μg/ml
  Final cytokine (IFN-γ): BQL
LN cells; treated 25 μg/M s.c., 5 million cells/well, activation Compound 1 12.5 μg/ml
  Final cytokine (IFN-γ): 41.9 pg/mL
LN cells; treated 25 μg/M s.c., 5 million cells/well, activation Compound 1 50 μg/ml
  Final cytokine (IFN-γ): 104.2 pg/mL
LN cells; treated 25 μg/M s.c., 5 million cells/well, activation Compound 1 100 μg/ml
  Final cytokine (IFN-γ): 185.2 pg/mL
LN cells; treated 25 μg/M s.c., 5 million cells/well, activation Compound 1 25 μ/ml
  Final cytokine (IFN-γ): 70.0 pg/mL
LN cells; treated 25 μg/M s.c., 5 million cells/well, activation Con A
  Final cytokine (IFN-γ): 2995.3 pg/mL
LN cells; treated 50 μg/M s.c., 2.5 million cells/well, activation Compound 1 3.125 μg/ml
  Final cytokine (IFN-γ): 54.1 pg/mL
LN cells; treated 50 μg/M s.c., 2.5 million cells/well, activation Compound 1 6.25 μg/ml
  Final cytokine (IFN-γ): 81.8 pg/mL
LN cells; treated 50 μg/M s.c., 2.5 million cells/well, activation Compound 1 12.5 μg/ml
  Final cytokine (IFN-γ): 123.1 pg/mL
LN cells; treated 50 μg/M s.c., 2.5 million cells/well, activation Compound 1 50 μg/ml
  Final cytokine (IFN-γ): 292.5 pg/mL
LN cells; treated 50 μg/M s.c., 2.5 million cells/well, activation Compound 1 100 μg/ml
  Final cytokine (IFN-γ): 531.8 pg/mL
LN cells; treated 50 μg/M s.c., 2.5 million cells/well, activation Compound 1 25 μ/ml
  Final cytokine (IFN-γ): 215.1 pg/mL
LN cells; treated 50 μg/M s.c., 2.5 million cells/well, activation Con A
  Final cytokine (IFN-γ): 356.2 pg/mL
LN cells; treated 50 μg/M s.c., 5 million cells/well, activation Compound 1 3.125 μg/ml
  Final cytokine (IFN-γ): 76.2 pg/mL
LN cells; treated 50 μg/M s.c., 5 million cells/well, activation Compound 1 6.25 μg/ml
  Final cytokine (IFN-γ): 109.2 pg/mL
LN cells; treated 50 μg/M s.c., 5 million cells/well, activation Compound 1 12.5 μg/ml
  Final cytokine (IFN-γ): 179.5 pg/mL
LN cells; treated 50 μg/M s.c., 5 million cells/well, activation Compound 1 50 μg/ml
  Final cytokine (IFN-γ): 373.4 pg/mL
LN cells; treated 50 μg/M s.c., 5 million cells/well, activation Compound 1 100 μg/ml
  Final cytokine (IFN-γ): 547.0 pg/mL
LN cells; treated 50 μg/M s.c., 5 million cells/well, activation Compound 1 25 μ/ml
  Final cytokine (IFN-γ): 277.9 pg/mL
LN cells; treated 50 μg/M s.c., 5 million cells/well, activation Con A
  Final cytokine (IFN-γ): 4837.0 pg/mL
LN cells; treated 100 μg/M s.c., 2.5 million cells/well, activation Compound 1 3.125 μg/ml
  Final cytokine (IFN-γ): 64.5 pg/mL
LN cells; treated 100 μg/M s.c., 2.5 million cells/well, activation Compound 1 6.25 μg/ml
  Final cytokine (IFN-γ): 116.1 pg/mL
LN cells; treated 100 μg/M s.c., 2.5 million cells/well, activation Compound 1 12.5 μg/ml
  Final cytokine (IFN-γ): 180.9 pg/mL
LN cells; treated 100 μg/M s.c., 2.5 million cells/well, activation Compound 1 50 μg/ml
  Final cytokine (IFN-γ): 518.3 pg/mL
LN cells; treated 100 μg/M s.c., 2.5 million cells/well, activation Compound 1 100 μg/ml
  Final cytokine (IFN-γ): 582.7 pg/mL
LN cells; treated 100 μg/M s.c., 2.5 million cells/well, activation Compound 1 25 μ/ml
  Final cytokine (IFN-γ): 262.8 pg/mL
LN cells; treated 100 μg/M s.c., 2.5 million cells/well, activation Con A
  Final cytokine (IFN-γ): 337.4 pg/mL
LN cells; treated 100 μg/M s.c., 5 million cells/well, activation Compound 1 3.125 μg/ml
  Final cytokine (IFN-γ): 90.8 pg/mL
LN cells; treated 100 μg/M s.c., 5 million cells/well, activation Compound 1 6.25 μg/ml
  Final cytokine (IFN-γ): 157.8 pg/mL
LN cells; treated 100 μg/M s.c., 5 million cells/well, activation Compound 1 12.5 μg/ml
  Final cytokine (IFN-γ): 257.1 pg/mL
LN cells; treated 100 μg/M s.c., 5 million cells/well, activation Compound 1 50 μg/ml
  Final cytokine (IFN-γ): 739.7 pg/mL
LN cells; treated 100 μg/M s.c., 5 million cells/well, activation Compound 1 100 μg/ml
  Final cytokine (IFN-γ): 995.5 pg/mL
LN cells; treated 100 μg/M s.c., 5 million cells/well, activation Compound 1 25 μ/ml
  Final cytokine (IFN-γ): 421.7 pg/mL
LN cells; treated 100 μg/M s.c., 5 million cells/well, activation Con A
  Final cytokine (IFN-γ): 10126.8 pg/mL
LN cells; treated 200 μg/M s.c., 2.5 million cells/well, activation Compound 1 3.125 μg/ml
  Final cytokine (IFN-γ): 103.9 pg/mL
LN cells; treated 200 μg/M s.c., 2.5 million cells/well, activation Compound 1 6.25 μg/ml
  Final cytokine (IFN-γ): 126.1 pg/mL
LN cells; treated 200 μg/M s.c., 2.5 million cells/well, activation Compound 1 12.5 μg/ml
  Final cytokine (IFN-γ): 129.0 pg/mL
LN cells; treated 200 μg/M s.c., 2.5 million cells/well, activation Compound 1 50 μg/ml
  Final cytokine (IFN-γ): 378.1 pg/mL
LN cells; treated 200 μg/M s.c., 2.5 million cells/well, activation Compound 1 100 μg/ml
  Final cytokine (IFN-γ): 524.1 pg/mL
LN cells; treated 200 μg/M s.c., 2.5 million cells/well, activation Compound 1 25 μ/ml
  Final cytokine (IFN-γ): 240.3 pg/mL
LN cells; treated 200 μg/M s.c., 2.5 million cells/well, activation Con A
  Final cytokine (IFN-γ): BQL
LN cells; treated 200 μg/M s.c., 5 million cells/well, activation Compound 1 3.125 μg/ml
  Final cytokine (IFN-γ): 204.4 pg/mL
LN cells; treated 200 μg/M s.c., 5 million cells/well, activation Compound 1 6.25 μg/ml
  Final cytokine (IFN-γ): 244.1 pg/mL
LN cells; treated 200 μg/M s.c., 5 million cells/well, activation Compound 1 12.5 μg/ml
  Final cytokine (IFN-γ): 466.1 pg/mL
LN cells; treated 200 μg/M s.c., 5 million cells/well, activation Compound 1 50 μg/ml
  Final cytokine (IFN-γ): 922.5 pg/mL
LN cells; treated 200 μg/M s.c., 5 million cells/well, activation Compound 1 100 μg/ml
  Final cytokine (IFN-γ): 1006.2 pg/mL
LN cells; treated 200 μg/M s.c., 5 million cells/well, activation Compound 1 25 μ/ml
  Final cytokine (IFN-γ): 660.5 pg/mL
LN cells; treated 200 μg/M s.c., 5 million cells/well, activation Con A
  Final cytokine (IFN-γ): 7722.8 pg/mL
LN cells; treated dose of 25 μg/mouse
  average inhibition of IFN-γ secretion: 95%
SLE subjects; [5]
  QTc change from baseline: no QTc change from baseline>60 msec
  categorical ECG measurements and digitized ECG parameters versus placebo: No differences of clinical significance
  hematology, biochemistry or urinalysis values: No clinically significant effect
  incidence of AEs versus placebo: no prominent difference
  physical exam: No clinically significant effects
  serious or severe adverse events: No serious adverse event (SAE) or AE classified as severe occurred
  temperature and weight: No clinically significant effect
  vital signs (systolic, diastolic blood pressure, pulse, oxygen saturation): No clinically significant effect
SLE subjects; single s.c. dose in Captisol®
  immunological response to tetanus toxoid (TTX) recall antigen: did not change
SLE subjects; single s.c. dose of 0.5, 1 or 2.5 mg in 120 mg Captisol®
  safety and tolerability: safe and well tolerated
[2]; PBL of SLE patients, 48 hours
  Up-Regulation of TGF-β % (patients): 100 (19/19) %
[2]; PBL of one representative SLE patient, FIG. 13
  secretion of TGF-β: significant up-regulation
[2]; percent secretion above that in the presence of 16/6 Id alone (= 100%)
  Maximum Up-regulation %: 305 ± 221%
[3]
  16/6 Id specific antibody response: no effect
  SLE related findings (immune complex deposits in the kidney, proteinuria, leukopenia): significantly reduced
[4]; 30% (w/w) PEG 400
  solubility: 5000 to 9000 µg/mL
[4]; 30% DMA (dimethyl-acetamide) solution
  solubility: 5000 to 9000 µg/mL
[4]; Human Serum Albumin solution
  solubility: 1000 µg/mL
[4]; Hydroxypropyl-β-cyclodextrin solution
  solubility: ~10000 µg/mL
[4]; L-Arginine, resulting pH above 9
  solubility: at the desired level
[4]; Polysorbate 20 / Polysorbate 80 solution, up to 10%
  solubility: ≤ 2000 µg/mL
[4]; Sulfobutylether-β-cyclodextrin (Captisol) solution
  solubility: ~2500 µg/mL
[4]; bulking agents Mannitol, Sorbitol, Dextran, alone and combined
  effect on solubility: did not improve the solubility
[4]; initial tests, limits of desired pH levels
  stability versus pH: less stable at the basic pH range
[4]; non aqueous solvents Ethanol, Glycerin, Propylene glycol, Chremophore and combinations
  effect on solubility: did not increase the solubility
